Test results from patent publication US6596863B2, “Medical composition containing nitroetheneamine Derivative or salt there of as active constituent” (Ishihara Sangyo Kaisha, Ltd., priority 1998, dated 2003).
Like-named read-outs stand apart in the source and are kept apart here. Marks after values point to notes of the source that are not given here.

Columns and labels:
[1] = target: T1, human MMP-9 (gelatinase B) (Homo sapiens, UniProt P14780); experiment: Inhibition activity against human MMP-9 (gelatinase B), fluorescent peptide substrate; type: biochemical; conditions: compounds of the formula (I)
T1 construct: endogenous in cells; host or cells: HT1080 human fibrosarcoma cells (ATCC CCL-121), PMA-stimulated; enzyme purified from the culture supernatant
T1 sequence (P14780 107-707 limits assumed): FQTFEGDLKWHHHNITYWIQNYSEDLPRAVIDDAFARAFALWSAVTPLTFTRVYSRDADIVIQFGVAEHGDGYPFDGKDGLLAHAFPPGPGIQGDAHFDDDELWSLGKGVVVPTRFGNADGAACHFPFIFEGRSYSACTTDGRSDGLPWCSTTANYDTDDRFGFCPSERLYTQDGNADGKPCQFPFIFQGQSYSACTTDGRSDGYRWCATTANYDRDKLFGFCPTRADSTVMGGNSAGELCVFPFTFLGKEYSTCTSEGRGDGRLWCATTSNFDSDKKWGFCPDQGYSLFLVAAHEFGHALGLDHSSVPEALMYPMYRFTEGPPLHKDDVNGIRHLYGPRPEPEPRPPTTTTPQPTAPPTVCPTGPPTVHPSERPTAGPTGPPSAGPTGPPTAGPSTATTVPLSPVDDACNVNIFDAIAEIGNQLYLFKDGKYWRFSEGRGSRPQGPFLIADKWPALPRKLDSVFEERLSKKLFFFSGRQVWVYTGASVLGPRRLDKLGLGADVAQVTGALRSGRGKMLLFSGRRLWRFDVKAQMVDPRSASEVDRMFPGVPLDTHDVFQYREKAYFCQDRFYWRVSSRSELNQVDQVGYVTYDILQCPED
Procedure, shortened: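 MMP-9 purified from PMA-stimulated (10 ng/ml) HT1080 supernatant, or commercial enzyme (0.0125-0.025 unit/ml or 0.2 μg/ml final), incubated with compound and 10 μM final Mca-Pro-Leu-Gly-Leu-Dpa-Ala-Arg-NH2 fluorescent substrate at 37 °C for 3 h in the dark. Precursor enzyme activated with APMA.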

[2] = system: CPAE cells (bovine pulmonary-derived vascular endothelical cells); experiment: Inhibitory action against capillary-like tube formation of vascular endothelial cells, three dimensional collagen gel culture; type: cell-based; conditions: for Number of networks Average ± SD: n = 5, Day 4
Description: With reference to the method disclosed in a literature (Hayashi, J. N. et al, Virchows arch. (B), Vol. 60,245-252, 1991, Lee, D. Y. et al, Life Science, Vol. 60, 127-134, 1997), evaluation was carried out by the following method.
7 Parts by volume of type I-a collagen (manufactured by Nitta Gelatin K. K.) and 2 parts by volume of Dulbecco's Modified Eagle Medium (concentration: 5 times, containing no NaHCO3; No. D-5648, manufactured by Sigma Co.) were thoroughly mixed under cooling with ice, and then one part by volume of a collagen gel-reconstructing buffer solution (2.2% NaHCO3/0.2M HEPES/0.05N NaOH) was added thereto. To withdraw bubbles, centrifugal separation and supersonic treatment were carried out, and then 400 μl of the gel was introduced into 24 well multi-well plate (Code 3047, manufactured by Falcon Co.) and incubated at 37° C. for about 10 minutes for gelation.
On the gelled collagen, CPAE cells (bovine pulmonary-derived vascular endothelical cells; ATCC CCL209, purchased from Dainippon Seiyaku K. K.) was inoculated in a concentration of 4×10^4 cells/400 μl/well (Day 0). Thereafter the cells were cultured overnight at 37° C. in a 5% CO2 incubator. Next day (Day 1), after confirming that the cells were normally proliferating, the culture solution was removed by aspiration, and a fresh collagen gel (prepared in the same manner as the above layer) was overlaid in an amount of 200 μl/well and gelled.
On the gel, the test materials dissolved in 10% fetal bovine serum-containing Dulbecco's Modified Eagle Medium (No. D-5648, manufactured by Sigma Co.) (prepared to have a concentration four times the final concentration) was added in an amount of 200 μl, and culturing was continued under the same conditions. Upon expiration of three days from stratification (Day 4), capillary-like tube formation was observed by a microscope, and an optional field of view was photographed with 100 magnifications, whereupon the number of capillary-like structures formed (the number of networks) were visually counted with reference to the method disclosed in a literature by Yeong, H. et al (Cancer Research, Vol. 56, 2428-2433, 1996). For each test sample, 2 well treatment was carried out, and a total of five fields of view were photographed for evaluation.

[3] = 1st measurement, read-out: MMP-9 inhibition activities IC50, 1st
[4] = 2nd measurement, read-out: MMP-9 inhibition activities IC50, 2nd
[5] = average of 1st and 2nd (or single measurement), read-out: MMP-9 inhibition activities IC50, Average

## CCOCCOc1cc(C(F)(F)F)cc(NNC(=C[N+](=O)[O-])NC)n1 [Compound No. 107]
[1]; [3]
  IC50: 8 µM
[1]; [4]
  IC50: 7.4 µM
[1]; [5]
  IC50: 7.7 µM
[2]; 0.1 μM
  Inhibition ratio (%) against capillary-like tube formation: 35* %
  Number of networks Average ± SD: 20.0 ± 5.7
[2]; 1 μM
  Inhibition ratio (%) against capillary-like tube formation: 41* %
  Number of networks Average ± SD: 18.2 ± 1.6
[2]; 10 μM
  Inhibition ratio (%) against capillary-like tube formation: 62* %
  Number of networks Average ± SD: 11.8 ± 5.0
[2]; 100 μM
  Inhibition ratio (%) against capillary-like tube formation: 93* %
  Number of networks Average ± SD: 2.0 ± 2.8

## CS(=O)(=O)NC(=C[N+](=O)[O-])NNc1cc(C(F)(F)F)cc(Cl)n1 [Compound No. 157, N-(1-(6-chloro-4-trifluoromethyl-2-pyridyl)hydrazino-2-nitroethenyl)methanesulfonamide]
[1]; [3]
  IC50: 7.4 µM
[1]; [4]
  IC50: 5.5 µM
[1]; [5]
  IC50: 6.5 µM

## CCOCCOc1cc(C(F)(F)F)cc(NNC(=C[N+](=O)[O-])NS(C)(=O)=O)n1 [Compound No. 164, N-(1-(6-(2-ethoxyethoxy)-4-trifluoromethyl-2-pyridyl)hydrazino-2-nitroethenyl)methanesulfonamide]
[1]; [3]
  IC50: 5.4 µM
[1]; [4]
  IC50: 5.9 µM
[1]; [5]
  IC50: 5.7 µM
[2]; 0.1 μM
  Inhibition ratio (%) against capillary-like tube formation: 23%
  Number of networks Average ± SD: 23.6 ± 3.2
[2]; 1 μM
  Inhibition ratio (%) against capillary-like tube formation: 44* %
  Number of networks Average ± SD: 17.2 ± 4.1
[2]; 10 μM
  Inhibition ratio (%) against capillary-like tube formation: 44* %
  Number of networks Average ± SD: 17.2 ± 6.0
[2]; 100 μM
  Inhibition ratio (%) against capillary-like tube formation: 66* %
  Number of networks Average ± SD: 10.4 ± 5.7
